Converted amounts (≈) assume the structure as drawn. Read-outs that look alike come from different tables or passages of the source.
Columns and labels:
S.aureus SK 23390 = test: In vitro antibacterial activity (MIC); assay type: cell-based; settings: Staphylococcus aureus, SK23390
Protocol: (§1) The compounds of this invention have antibacterial activity against Gram-positive and Gram-negative organisms. Minimum inhibitory concentrations (MIC's) ranged from 0.4 to >200 μg/ml in in vitro testing.

E. coli HH 33779 = test: In vitro antibacterial activity (MIC); assay type: cell-based; settings: Escherichia coli, HH33779
Protocol: as §1

Strep. faecalis HH 34358 = test: In vitro antibacterial activity (MIC); assay type: cell-based; settings: Enterococcus faecalis, HH34358; Strep. faecalis HH 34358, in vitro
Protocol: as §1

[1] = system: Entero. aerog. ATCC 13048; test: In vitro antibacterial activity (MIC); assay type: cell-based; settings: Entero. aerog. ATCC 13048, in vitro; read-out: MIC
Protocol: as §1

Shig. paradys HH 112 = test: In vitro antibacterial activity (MIC); assay type: cell-based; settings: Shig. paradys HH 112, in vitro; read-out: MIC
Protocol: as §1

Kleb. pneumo. SK 1200 = test: In vitro antibacterial activity (MIC); assay type: cell-based; settings: Kleb. pneumo. SK 1200, in vitro; read-out: MIC
Protocol: as §1

Kleb. pneumo. SK 4200 = test: In vitro antibacterial activity (MIC); assay type: cell-based
Protocol: as §1

S.aureus HH 127 = test: In vitro antibacterial activity (MIC); assay type: cell-based; settings: Staphylococcus aureus, HH127
Protocol: as §1

S.aureus Villaluz = test: In vitro antibacterial activity (MIC); assay type: cell-based; settings: Staphylococcus aureus
Protocol: as §1

E.coli SK 12140 = test: In vitro antibacterial activity (MIC); assay type: cell-based; settings: Escherichia coli, SK12140
Protocol: as §1

Klebs.pneumo. 4200 = test: In vivo activity (ED50) against Klebs.pneumo. 4200
E.coli 12140 = test: In vivo activity (ED50) against E.coli 12140
Proteus morgani 179 = test: In vitro antibacterial activity (MIC); assay type: cell-based; settings: Proteus morgani 179, in vitro
Protocol: as §1

[2] = E. coli HH 33779, in vitro, read-out: MIC
[3] = E.coli SK 12140, in vitro, read-out: MIC
[4] = po, Klebs.pneumo. 4200, p.o., read-out: ED50
[5] = sc, Klebs.pneumo. 4200, s.c., read-out: ED50
[6] = Escherichia coli, 12140, po, E.coli 12140, p.o.
[7] = Escherichia coli, 12140, sc, E.coli 12140, s.c.
[8] = S.aureus SK 23390, in vitro, read-out: MIC
[9] = Kleb. pneumo. SK 4200, in vitro, read-out: MIC
[10] = S.aureus HH 127, in vitro, read-out: MIC

| SMILES | MIC (S.aureus SK 23390) [µg/mL] | MIC (E. coli HH 33779; [2]) [µg/mL] | MIC (Strep. faecalis HH 34358) [µg/mL] | MIC [1] [µg/mL] | MIC (Kleb. pneumo. SK 1200) [µg/mL] | MIC (Kleb. pneumo. SK 4200) [µg/mL] | MIC (S.aureus HH 127) [µg/mL] | MIC (S.aureus Villaluz) [µg/mL] | MIC (E.coli SK 12140; [3]) [µg/mL] | ED50 (Klebs.pneumo. 4200; [4]) [mg/kg] | ED50 (Klebs.pneumo. 4200; [5]) [mg/kg] | ED50 (E.coli 12140; [6]) [mg/kg] | ED50 (E.coli 12140; [7]) [mg/kg] | MIC (Proteus morgani 179; read-out: MIC) [µg/mL] | MIC (Kleb. pneumo. SK 4200; [9]) [µg/mL] | other results |
| --- | --- | --- | --- | --- | --- | --- | --- | --- | --- | --- | --- | --- | --- | --- | --- | --- |
| CC1=C(C(=O)O)N2C(=O)C(NC(=O)[C@H](N)c3ccc(NCC(=O)O)cc3)C2SC1 (stereo partly drawn) [Compound No. 51436, 7-[D-α-Amino-α-(4'-carboxymethylaminophenyl)acetamido]-3-desacetoxycephalosphoranic acid] | 12.5 (≈ 29.7 µM) | 25 (≈ 59.5 µM) | 200 (≈ 476 µM) | 100 (≈ 238 µM) | 50 (≈ 119 µM) | 12.5 (≈ 29.7 µM) | 12.5 (≈ 29.7 µM) | 200 (≈ 476 µM) | 25 (≈ 59.5 µM) |  |  |  |  |  |  | MIC (Shig. paradys HH 112): 25 µg/mL (≈ 59.5 µM) |
| Cc1nnc(SCC2=C(C(=O)O)N3C(=O)C(NC(=O)[C@H](N)c4ccc(OCC(=O)O)cc4)C3SC2)s1 (stereo partly drawn) [Compound No. 59216, 7-[D-α-Amino-α-(4'-carboxymethoxyphenyl)acetamido]-3-(5-methyl-1,3,4-thiadiazol-2-ylthiomethyl)-3-cephem-4-carboxylic acid] |  | 12.5 (≈ 22.7 µM) | 100 (≈ 181 µM) | 12.5 (≈ 22.7 µM) | 6.3 (≈ 11.4 µM) |  |  | 100 (≈ 181 µM) | 6.3 (≈ 11.4 µM) | 21.5 | 4.8 | 25 | 9.5 | 200 (≈ 363 µM) | 3.1 (≈ 5.62 µM) | MIC (S.aureus SK 23390; [8]): 25 µg/mL (≈ 45.3 µM); MIC (S.aureus HH 127; [10]): 6.3 µg/mL (≈ 11.4 µM) |
| Cn1nnnc1SCC1=C(C(=O)O)N2C(=O)C(NC(=O)[C@H](N)c3ccc(SCC(=O)O)cc3)C2SC1 (stereo partly drawn) [Compound No. 70326, 7-[D-α-Amino-α-(4'-carboxymethylthiophenyl)acetamido]-3-(1-methyl-1,2,3,4-tetrazol-5-ylthiomethyl)-3-cephem-4-carboxylic acid] |  |  |  |  |  |  |  |  |  | 4 | 1.7 | 11 | 2.2 | 6.3 (≈ 11.4 µM) |  | ED50 (Klebs.pneumo. 4200; Klebs.pneumo. 4200, p.o.): 3 mg/kg; ED50 (Klebs.pneumo. 4200; Klebs.pneumo. 4200, s.c.): < 3 mg/kg |
| Cc1nnc(SCC2=C(C(=O)O)N3C(=O)C(NC(=O)[C@H](N)c4ccc(OCC(N)=O)cc4)C3SC2)s1 (stereo partly drawn) [Compound No. 71816, 7-[D-α-Amino-α-(4'-carbamylmethoxyphenyl)acetamido]-3-(5-methyl-1,3,4-thiadiazol-2-ylthiomethyl)-3-cephem-4-carboxylic acid] |  |  | 25 (≈ 45.4 µM) |  | 6.3 (≈ 11.4 µM) |  |  | 25 (≈ 45.4 µM) | 6.3 (≈ 11.4 µM) | 6.2 | 7.5 | 12.5 | 4.5 | 100 (≈ 182 µM) | 3.1 (≈ 5.63 µM) | MIC (E. coli HH 33779): 12.5 µg/mL (≈ 22.7 µM); MIC (Proteus morgani 179): 200 µg/mL (≈ 363 µM) |
| Cc1nnc(SCC2=C(C(=O)O)N3C(=O)C(NC(=O)[C@H](N)c4ccc(NCC(N)=O)cc4)C3SC2)s1 (stereo partly drawn) [Compound No. 72546, 7-[D-α-Amino-α-(4'-carbamylmethylaminophenyl)acetamido]-3-(5-methyl-1,3,4-thiadiazol-2-ylthiomethyl)-3-cephem-4-carboxylic acid] | 12.5 (≈ 22.7 µM) | 50 (≈ 91 µM) | 50 (≈ 91 µM) | 50 (≈ 91 µM) | 25 (≈ 45.5 µM) | 12.5 (≈ 22.7 µM) | 12.5 (≈ 22.7 µM) | 50 (≈ 91 µM) | 25 (≈ 45.5 µM) |  |  |  |  | > 200 |  |  |
| Cc1nnc(SCC2=C(C(=O)O)N3C(=O)C(NC(=O)[C@H](N)c4ccc(SCC(N)=O)cc4)C3SC2)s1 (stereo partly drawn) [Compound No. 86526, 7-[D-α-Amino-α-(4'-carbamylmethylthiophenyl)acetamido]-3-(5-methyl-1,3,4-thiadiazol-2-ylthiomethyl)-3-cephem-4-carboxylic acid] |  | 25 (≈ 44.1 µM) | 50 (≈ 88.2 µM) | 100 (≈ 176 µM) | 6.3 (≈ 11.1 µM) |  |  | 25 (≈ 44.1 µM) | 25 (≈ 44.1 µM) | 10 | 7.2 | 42 | 18 |  | 12.5 (≈ 22.1 µM) | MIC (S.aureus SK 23390; [8]): 3.1 µg/mL (≈ 5.47 µM); MIC (S.aureus HH 127; [10]): 6.3 µg/mL (≈ 11.1 µM) |
| CC1=C(C(=O)O)N2C(=O)C(NC(=O)[C@H](N)c3ccc(SCC(=O)O)cc3)C2SC1 (stereo partly drawn) [compound 99316, 7-[D-α-Amino-α-(4'-carboxymethylthiophenyl)acetamido]-3-desacetoxycephalosporanic acid] | 12.5 (≈ 28.6 µM) | 50 (≈ 114 µM) | > 200 | 50 (≈ 114 µM) | 6.3 (≈ 14.4 µM) | 12.5 (≈ 28.6 µM) | 12.5 (≈ 28.6 µM) | 100 (≈ 229 µM) |  | 15.5 |  | 42 | 25 | > 200 |  | MIC (E.coli SK 12140): 12.5 µg/mL (≈ 28.6 µM) |

Source: patent US4022895A, “Substituted phenylglycylcephalosporins” (SmithKline Corporation, priority 1975, dated 1977)
